The test system of test [1] is obese diabetic monosodium-glutamate (MSG) mice. The test is described as follows: IPGTT after 10 days administration to obese diabetic MSG mice. The class given is in vivo. To be noted: 5 mg/kg SC twice a day for 10 days, vs saline. The method, then:
Mice were subjected to a 10-day food intake experiment. […] After 10 days of treatment, mice were fasted overnight and IPGTT was performed. After initial blood glucose measurement, 2 g/kg glucose solution was administered intraperitoneally (IP).
Obese mice were created using MSG. L-glutamic acid sodium salt hydrate (Sigma, St. Louis, USA) was subcutaneously (SC) administered to newborn male mice, at a dose of 4 mg/g body weight, daily from postnatal days 2 to 8 to induce obesity. The MSG treated mice used for experiments were 24 weeks old. Age related mice were used as controls. Obese and control mice were placed into separate cages with free access to food and water. The following week, mice were subjected to a 10-day food intake experiment. […] Consumption of the St-1 diet and the body weight of the mice were simultaneously followed. After 10 days of treatment, mice were fasted overnight and IPGTT was performed. After initial blood glucose measurement, 2 g/kg glucose solution was administered IP.
Blood glucose was then measured at 15, 30, 60, 120 and 180 min post injection as described above.

Another test relates to Wistar rats. The test is described as follows: Food intake in fasted rats after SC injection. The class given is in vivo. To be noted: overnight fasted rats, compared to controls given vehicle. The method in brief:
(§1)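 Overnight-fasted animals (food removed 17 h before dosing, water available) in individual cages got saline, PrRP or lipidated PrRP analogs SC at 1-10 mg/kg.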

For the next test, the target named is T1, rat PrRP receptor (Rattus norvegicus, UniProt Q64121).
T1 construct: host or cells: RC-4B/C rat pituitary cell line
T1 sequence (Q64121 1-370): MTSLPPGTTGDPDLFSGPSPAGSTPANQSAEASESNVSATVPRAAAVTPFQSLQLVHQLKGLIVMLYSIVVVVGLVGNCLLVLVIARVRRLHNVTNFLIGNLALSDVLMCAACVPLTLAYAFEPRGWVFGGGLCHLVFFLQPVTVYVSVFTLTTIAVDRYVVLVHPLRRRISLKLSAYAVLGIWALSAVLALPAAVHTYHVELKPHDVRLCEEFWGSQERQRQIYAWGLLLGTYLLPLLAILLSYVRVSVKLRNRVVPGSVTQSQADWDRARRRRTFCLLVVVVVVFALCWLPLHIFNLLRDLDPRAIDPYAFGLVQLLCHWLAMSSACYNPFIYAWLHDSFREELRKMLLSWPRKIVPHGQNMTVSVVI
The test can be described thus: Competitive binding in RC-4B/C rat pituitary cells (125I-rat PrRP31). An outline of the steps: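 Intact rat pituitary RC-4B/C cells incubated 60 min at room temperature with […] rat 125I-PrRP31 and unlabeled analog (10^−11 to 10^−4 mol·l^−1) in HEPES pH 7.4 buffer. Cell-bound radioactivity γ-counted after NaOH lysis; one-site competition fit.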

The subject of another test is C57BL/6 mice. The test can be described thus: Food intake in fasted mice after SC injection. The class given is in vivo. The conditions noted are these: 5 mg/kg SC, 45 min after injection. The method in brief:
as §1

As for `CCCCCCCCCCCCCCCC(=O)N[C@@H](CO)C(=O)N[C@@H](CCCNC(=N)N)C(=O)N[C@H](C(=O)N[C@@H](Cc1c[nH]cn1)C(=O)N[C@@H](CCCNC(=N)N)C(=O)N[C@@H](Cc1c[nH]cn1)C(=O)N[C@@H](CO)C(=O)N[C@@H](CCSC)C(=O)N[C@@H](CCC(=O)O)C(=O)N[C@H](C(=O)N[C@@H](CCCNC(=N)N)C(=O)N[C@H](C(=O)N1CCC[C@H]1C(=O)N[C@@H](CC(=O)O)C(=O)N[C@H](C(=O)N[C@@H](CC(N)=O)C(=O)N1CCC[C@H]1C(=O)N[C@@H](C)C(=O)N[C@@H](Cc1c[nH]c2ccccc12)C(=O)N[C@@H](Cc1ccc(O)cc1)C(=O)N[C@@H](C)C(=O)N[C@@H](CO)C(=O)N[C@@H](CCCNC(=N)N)C(=O)NCC(=O)N[C@H](C(=O)N[C@@H](CCCNC(=N)N)C(=O)N1CCC[C@H]1C(=O)N[C@H](C(=O)NCC(=O)N[C@@H](CCCNC(=N)N)C(=O)N[C@@H](Cc1ccccc1)C(N)=O)C(C)C)[C@@H](C)CC)[C@@H](C)CC)[C@@H](C)O)[C@@H](C)CC)[C@@H](C)O` [Analog 43], in test [1], the “IPGTT area under the curve through 180 min” value was “substantially lower” and the “IPGTT blood glucose levels” value was “lower”. Besides, in the test on Wistar rats, the “Food intake in rats” value is “significantly reduced”. Moreover, the inhibitory constant (Ki) on rat PrRP receptor stood at 0.95 ± 0.35 nM. Further, the “Displacement of rat 125I-PrRP binding” value at rat PrRP receptor (RC-4B/C cells, rat PrRP receptor) was “nmol·l^−1 range”. Moreover, the “% of PrRP31, RC-4B/C rat pituitary cells” value on rat PrRP receptor (affinity relative to PrRP31) came out at 519%. For the same compound, the “Food intake in mice % of saline-treated group” value with C57BL/6 mice was found to be 30%.
